Patent US20060110789A1, “Methods to mediate polyketide synthase module effectiveness” (priority 2002, published 2006)

Legend:
module 2+TE ((5)M2+TE) = biological target: T1, module 2+TE ((5)M2+TE) (Saccharopolyspora erythraea, UniProt Q03131+Q03133); details: NAC thioester substrate, shown earlier; cited from earlier work
T1 construct: The protein was, in each case, a single module of the DEBS PKS fused to the thioesterase (TE) termination region of module 6; first 39 amino acids of module 5 (N-ERL); made in house; host or cells: E. coli (BL21(DE3) with sfp)

module 5+TE ((5)M5+TE) = details: NAC thioester substrate at saturating concentration, shown earlier; cited from earlier work
module 6+TE ((5)M6+TE) = biological target: T2, module 6+TE ((5)M6+TE) (Saccharopolyspora erythraea, UniProt Q03133, DEL53-1503); details: NAC thioester substrate, shown earlier; cited from earlier work
T2 construct: The protein was, in each case, a single module of the DEBS PKS fused to the thioesterase (TE) termination region of module 6; first 39 amino acids of module 5 (N-ERL); made in house; host or cells: E. coli (BL21(DE3) with sfp)

[1] = tested on: (5)M2+TE, (5)M5+TE, and (5)M6+TE; details: Wu et al. 2000; cited from earlier work
(5)M3+TE and (3)M3+TE = details: either module 3+TE derivative, previously shown; cited from earlier work
[2] = tested on: DEBS module 3 ((3)M3+TE or (5)M3+TE); assay: Substrate transfer and elongation assay, acceptor DEBS module 3; format: biochemical; details: 20 μM substrate; FIG. 27 A: diketide-ACP2(2)+(3)M3+TE; B: diketide-ACP2(4)+(3)M3+TE; C: diketide-ACP4(4)+(5)M3+TE; D: diketide-ACP4(4)+(3)M3+TE
Procedure: (§1) Substrate transfer and elongation assays. Qualitative assays were performed with a diketide-ACP or diketide-PCP substrate either taken directly from the so phosphopantetheinlyation reaction or after further purification of the substrate. These assays were performed with 20 μM diketide-ACP/PCP substrate for 2 hours in the following reaction conditions: 1 μM acceptor module, 0.5 mM ^14C-methylmalonyl CoA, 4 mM NADPH in buffer C, 30° C. After quenching by addition of 250 μL EtOAc and vortexing, the products were extracted with 2×250 μL EtOAc, resolved on a silica gel TLC plate, and visualized on a Packard InstantImager.
The kinetics of substrate transfer at the module 2-module 3 interface followed by elongation and product release were examined as a function of the k60 μM and kcat/KM values of the overall reaction. […] In many cases, the k60μm values approximate the maximal overall turnover rates, as determined by back calculating the KM value for the reactions. True saturation kinetics were not practical because of the technical limitations (e.g., solubility) and limited supply associated with high molecular weight substrates such as diketide-ACP and diketide-PCP. kcat/KM values were determined by competitive assay of the substrate of interest against a substrate with a known kcat/KM value, as previously described (Wu, et al., (2001) J. Am. Chem. Soc. 123, 6465-6474). […]

[3] = tested on: DEBS module 5 ((5)M5+TE or (3)M5+TE); assay: Substrate transfer and elongation assay, acceptor DEBS module 5; format: biochemical
Procedure: as §1
(§2) The kinetics of substrate transfer at the module 2-module 3 interface followed by elongation and product release were examined as a function of the k60 μM and kcat/KM values of the overall reaction. The k60 μm values reported here represent the apparent overall rate of product formation at an initial substrate concentration of 60 μM. In many cases, the k60μm values approximate the maximal overall turnover rates, as determined by back calculating the KM value for the reactions. True saturation kinetics were not practical because of the technical limitations (e.g., solubility) and limited supply associated with high molecular weight substrates such as diketide-ACP and diketide-PCP. kcat/KM values were determined by competitive assay of the substrate of interest against a substrate with a known kcat/KM value, as previously described (Wu, et al., (2001) J. Am. Chem. Soc. 123, 6465-6474). […]
(§3) These reactions were quenched by the addition of 80 μL 12.5% SDS to 2 μL reaction mixture and immediate vortexing. […] After removing the organic solvents in vacuo, the residual products were then spotted onto a TLC plate (Baker-flex 250 uM silica gel), resolved in 60% EtOAc/40% hexanes, and the radioactive spots were visualized and quantified on a Packard InstantImager. […]

(5)M2+TE = biological target: T3, (5)M2+TE (Saccharopolyspora erythraea, UniProt Q03131+Q03133); assay: Substrate transfer and elongation assay, acceptor DEBS module 2; format: biochemical
T3 construct: The protein was, in each case, a single module of the DEBS PKS fused to the thioesterase (TE) termination region of module 6; first 39 amino acids of module 5 (N-ERL); made in house; host or cells: E. coli (BL21(DE3) with sfp)
Procedure: as §1, §2, §3

(5)M6+TE = biological target: T4, (5)M6+TE (Saccharopolyspora erythraea, UniProt Q03133, DEL53-1503); assay: Substrate transfer and elongation assay, acceptor DEBS module 6; format: biochemical
T4 construct: The protein was, in each case, a single module of the DEBS PKS fused to the thioesterase (TE) termination region of module 6; first 39 amino acids of module 5 (N-ERL); made in house; host or cells: E. coli (BL21(DE3) with sfp)
Procedure: as §1, §2, §3

[4] = versus diketide-ACP4(4), stated jointly for modules 2 and 6

Row | Molecule | kcat (module 2+TE ((5)M2+TE)) | kcat (elongation rate constant) (module 5+TE ((5)M5+TE)) | kcat (module 6+TE ((5)M6+TE)) | qualitative turnover of NAC thioesters [1] | qualitative incorporation of NAC thioesters ((5)M3+TE and (3)M3+TE) | qualitative transfer of diketide to module 3 (triketide lactone formation) [2] | qualitative transfer of diketide to module 5 (triketide lactone formation) ([3]; 20 μM substrate, FIG. 28 A: diketide-ACP4(4)+(5)M5+TE, B: diketide-ACP4(4)+(3)M5+TE, C: diketide-ACP2(4)+(5)M5+TE, D: diketide-ACP2(2)+(5)M5+TE) | k60μm ([3]; acceptor (3)M5+TE, FIG. 29 B) | k60μm ([3]; acceptor (5)M5+TE, FIG. 29 A) | qualitative transfer of diketide to (5)M2+TE ((5)M2+TE; 20 μM substrate, 2 hours) | drop of k60 μM when linker interactions are eliminated ((5)M2+TE; [4]) | drop of kcat/KM when linker interactions are eliminated ((5)M2+TE; [4]) | qualitative transfer of diketide to (5)M6+TE ((5)M6+TE; 20 μM substrate, 2 hours) | drop of k60 μM when linker interactions are eliminated ((5)M6+TE; [4]) | drop of kcat/KM when linker interactions are eliminated ((5)M6+TE; [4])
1 | CCC(O)C(C)C(=O)SCCNC(C)=O (stereo not drawn) [2a] | 0.0767 s⁻¹ | 0.00417 s⁻¹ | 0.283 s⁻¹ | substrates for the three modules | readily incorporated and elongated |  |  |  |  |  |  |  |  |  | 
2 | diketide-ACP4(Ø): diketide on isolated ACP4 domain without linker region |  |  |  |  |  | not able to efficiently transfer substrates | Formation of the expected triketide lactone was observed | 0.27 min⁻¹ | 0.49 min⁻¹ | observed | approximately 10 fold | 70-300 fold | observed | approximately 10 fold | 70-300 fold
